Experimental data published in US20250100988A1, “PREPARATION OF A COMPOUND FOR THE TREATMENT OF GOUT OR HYPERURICEMIA” (Arthrosi Therapeutics, Inc., priority 2021, published 2025).

Test: Solubility of test articles in HBSS assay buffer
Conditions: at all tested concentrations; highest tested concentration 10 μM
Method: Before the experiment, the medium was removed and the cells were washed twice with 100 μL of HBSS without Cl^−. Uptake experiments were carried out at 37±1° C. in 50 μL of HBSS without Cl^−, pH 7.4 containing the probe substrate (20 μM uric acid) and the test article (TA) or solvent.

solubility in HBSS buffer | SMILES
soluble | CCc1oc2ccccc2c1C(=O)c1cc(Br)c(O)c(Br)c1 [Benzbromarone]
soluble | [2H]c1c([2H])c([2H])c2c(C(=O)c3cc(Br)c(O)c(Br)c3)c(C(C)O)oc2c1[2H] (centres unmarked) [Compound 1, (3,5-dibromo-4-hydroxyphenyl)(2-(1-hydroxyethyl)benzofuran-3-yl-4,5,6,7-d4)methanone]
